Results: US20240279220A1, “INDOLE COMPOUNDS AND METHODS OF USE” (Genzyme Corporation, priority 2021, published 2024)

Experiments:
NBD1/3D = test: Aggregation analysis using differential static light scattering (DSLS), NBD1 thermal stability; type: binding, Human; details: ΔTagg versus DMSO control; compound at 100 μM
Summary of the method: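 Purified NBD1 at 0.2 mg/ml in S200 buffer (pH 7.6, 2 mM ATP, 5 mM MgCl2, 1% glycerol) was heated with compound at 1 °C/min to 70 °C. Tagg taken from the light-scattering curve inflection point; ΔTagg = compound Tagg minus mean DMSO control Tagg.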

CFTR = molecular target: T1, CFTR (Homo sapiens, UniProt P13569, DEL508-508); test: TECC24 recording of CFTR-mediated transepithelial chloride transport in ΔF508 homozygous CF-HBE cells; type: cell-based; details: 10 μM test agent, 48 hours incubation, AUC of forskolin-stimulated IEQ divided by vehicle AUC, primary CF-HBE cells
T1 construct: Primary human bronchial epithelial cells from a ΔF508 homozygous CF donor; host or cells: primary human bronchial epithelial cells (CF-HBE), ΔF508 homozygous donor
Procedure: The effects of a test agent on CFTR-mediated transepithelial chloride transport was measured using TECC24 recording analysis. Test agents were solubilized in DMSO. Solubilized test agents were mixed with incubation medium containing DMEM/F12, Ultroser G (2%; Crescent Chemical, catalog #67042), Hyclone Fetal Clone II (2%; GE Healthcare, catalog #SH30066.02), bovine brain extract (0.25%; Lonza, catalog #CC-4098), insulin (2.5 μg/mL), IL-13 (10 ng/mL), hydrocortisone (20 nM), transferrin (2.5 μg/mL), triiodothyronine (500 nM), ethanolamine (250 nM), epinephrine (1.5 μM), phosphoethanolamine (250 nM), and retinoic acid (10 nM). Primary human bronchial epithelial cells from a ΔF508 homozygous CF donor (CF-HBE cells; from University of North Carolina Cystic Fibrosis Tissue Procurement Center), grown on Transwell HTS 24-well cell culture inserts (Costar, catalog #3378), were exposed to test agents or controls dissolved in incubation medium. The CF-HBE cells were cultured at 36.5° C. for 48 hours before TECC24 recordings were performed in the presence or absence of test agent, a positive control or vehicle (DMSO).
Following incubation, the transwell cell culture inserts containing the test agent or control-treated CF-HBE cells were loaded onto a TECC24 apparatus (TECC v7 or MTECC v2; EP Design) to record the transepithelial voltage (VT) and resistance (TEER) using 4 AgCl electrodes per well configured in current-clamp mode. The apical and basolateral bath solutions both contained (in mM) 140 NaCl, 5 KCl, 2 CaCl2, 1 MgCl2, 10 Hepes, and 10 glucose (adjusted to pH 7.4 with NaOH). To inhibit basal Na+ absorption, the ENaC inhibitor benzamil (10 μM) was added to the bath. Then, the adenylate cyclase activator, forskolin (10 μM), was added to the bath to activate CFTR. The forskolin-stimulated Cl— transport was halted by addition of CFTR inhibitor-172 (20 μM) to the bath at the end of the experiment to confirm specificity. VT and TEER recordings were digitally acquired at routine intervals using TECC or MTECC software (EP Design). VT and TEER were transformed into equivalent transpeithelial Cl— current (IEQ), and the Area Under the Curve (AUC) of the IEQ timecourse between forskolin and CFTR inhibitor-172 addition is generated using Excel (Microsoft). Efficacy is expressed as the ratio of the test agent AUC divided by vehicle AUC. EC50s based on AUC are generated using the non-linear regression log(agonist) vs. response function in Prism software (Graphpad) with HillSlope fixed=1.
If a test agent increased the AUC of the forskolin-stimulated IEQ relative to vehicle in CF-HBE cells, and this increase was inhibited by CFTR inhibitor-172, then the test agent was considered a CFTR corrector.

T1 sequence (P13569 with tags, fused parts or gaps DEL508-508): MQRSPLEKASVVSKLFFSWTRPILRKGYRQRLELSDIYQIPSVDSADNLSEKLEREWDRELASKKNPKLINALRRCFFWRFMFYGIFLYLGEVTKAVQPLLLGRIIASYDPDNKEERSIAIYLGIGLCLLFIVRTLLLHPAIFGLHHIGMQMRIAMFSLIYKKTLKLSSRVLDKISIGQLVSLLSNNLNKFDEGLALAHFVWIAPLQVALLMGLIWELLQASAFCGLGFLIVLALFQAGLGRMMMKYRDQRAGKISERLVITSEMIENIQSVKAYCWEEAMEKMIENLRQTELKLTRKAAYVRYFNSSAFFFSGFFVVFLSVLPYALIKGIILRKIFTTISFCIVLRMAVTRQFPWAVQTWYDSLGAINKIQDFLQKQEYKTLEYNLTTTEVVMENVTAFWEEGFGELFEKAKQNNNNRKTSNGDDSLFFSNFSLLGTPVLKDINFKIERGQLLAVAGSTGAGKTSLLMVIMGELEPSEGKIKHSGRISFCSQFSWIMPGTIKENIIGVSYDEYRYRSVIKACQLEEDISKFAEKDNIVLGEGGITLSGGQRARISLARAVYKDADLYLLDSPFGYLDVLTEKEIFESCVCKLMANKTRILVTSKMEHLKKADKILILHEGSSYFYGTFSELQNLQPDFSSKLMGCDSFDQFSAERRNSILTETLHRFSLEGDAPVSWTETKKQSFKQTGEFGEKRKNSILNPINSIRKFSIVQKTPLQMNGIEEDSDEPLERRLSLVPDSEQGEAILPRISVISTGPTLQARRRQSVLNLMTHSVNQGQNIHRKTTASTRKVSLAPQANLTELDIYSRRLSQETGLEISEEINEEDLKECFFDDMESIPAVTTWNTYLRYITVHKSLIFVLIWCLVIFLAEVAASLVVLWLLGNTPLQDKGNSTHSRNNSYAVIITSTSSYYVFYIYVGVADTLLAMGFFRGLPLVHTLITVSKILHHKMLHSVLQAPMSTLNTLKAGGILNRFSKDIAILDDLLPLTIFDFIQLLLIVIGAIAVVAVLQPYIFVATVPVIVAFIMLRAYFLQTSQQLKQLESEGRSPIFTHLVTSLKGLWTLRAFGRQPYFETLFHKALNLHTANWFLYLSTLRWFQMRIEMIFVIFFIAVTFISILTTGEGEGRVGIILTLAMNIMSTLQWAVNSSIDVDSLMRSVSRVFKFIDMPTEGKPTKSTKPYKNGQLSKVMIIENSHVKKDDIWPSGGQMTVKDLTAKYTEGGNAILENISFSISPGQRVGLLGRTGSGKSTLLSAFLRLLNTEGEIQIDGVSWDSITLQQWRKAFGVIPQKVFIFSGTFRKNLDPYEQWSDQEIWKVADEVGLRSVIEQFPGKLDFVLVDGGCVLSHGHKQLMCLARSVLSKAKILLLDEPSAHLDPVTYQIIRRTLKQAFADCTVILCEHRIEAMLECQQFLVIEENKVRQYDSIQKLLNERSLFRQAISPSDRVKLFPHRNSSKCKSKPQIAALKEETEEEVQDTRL

Row | Structure (SMILES) | DSLS NBD1/3D Human Stability delta-T (° C.) @ 100 (μM) (NBD1/3D) | TECC24 @ 10 μM over DMSO (AUC fold over DMSO) (CFTR)
1 | CC(c1ccn(-c2cccc(Oc3c(F)cc4[nH]ccc4c3S(C)(=O)=O)c2)n1)c1cccc(CCC(=O)O)c1F (single isomer, unassigned) [Example 23B, 3-(2-fluoro-3-(1-(1-(3-((6-fluoro-4-(methylsulfonyl)-1H-indol-5-yl)oxy)phenyl)-1H-pyrazol-3-yl)ethyl)phenyl)propanoic acid] | A (A: T ≥ 10° C.) | A (“A” refers to AUC @10 uM >= 12)
2 | CC(c1cnc(-c2cc(Oc3c(F)cc4[nH]ccc4c3CCP(C)(C)=O)ccc2F)[nH]1)c1cccc(CCC(=O)O)c1F (single isomer, unassigned) [Example 135A, 3-(3-(1-(2-(5-((4-(2-(dimethylphosphoryl)ethyl)-6-fluoro-1H-indol-5-yl)oxy)-2-fluorophenyl)-1H-imidazol-5-yl)ethyl)-2-fluorophenyl)propanoic acid] | A (A: T ≥ 10° C.) | C (“C” refers to AUC @ 10 uM <= 4)
3 | C[C@H]1C[C@](c2cccc(CCC(=O)O)c2)(c2c[nH]c(-c3cc(Oc4c(F)cc5[nH]ccc5c4F)ccc3F)n2)CCO1 (racemic) [Example 155, 3-(3-((2S)-4-(2-(5-((4,6-difluoro-1H-indol-5-yl)oxy)-2-fluorophenyl)-1H-imidazol-5-yl)-2-methyltetrahydro-2H-pyran-4-yl)phenyl)propanoic acid] | A (A: T ≥ 10° C.) | A (“A” refers to AUC @10 uM >= 12)
4 | CC(c1cccc(CCC(=O)O)c1F)n1ccc(-c2cc(Oc3c(F)cc4[nH]ccc4c3S(C)(=O)=O)ccc2F)n1 (single isomer, unassigned) [Example 41B, 3-(2-fluoro-3-(1-(3-(2-fluoro-5-((6-fluoro-4-(methylsulfonyl)-1H-indol-5-yl)oxy)phenyl)-1H-pyrazol-1-yl)ethyl)phenyl)propanoic acid] | A (A: T ≥ 10° C.) | A (“A” refers to AUC @10 uM >= 12)
5 | CC(O)(c1cccc(CCC(=O)O)c1)c1c[nH]c(-c2cc(C(=O)c3ccc4[nH]ccc4c3)ccc2F)n1 (centres unmarked) [Example 194, 3-(3-(1-(2-(2-fluoro-5-(1H-indole-5-carbonyl)phenyl)-1H-imidazol-4-yl)-1-hydroxyethyl)phenyl) propanoic acid] | B (B: 5-10° C.) | C (“C” refers to AUC @ 10 uM <= 4)
6 | Cc1c(Oc2cc(-c3ncc(C(C)(O)c4cccc(CCC(=O)O)c4)[nH]3)c(F)cc2F)c(F)cc2[nH]ccc12 (centres unmarked) [Example 206, 3-(3-(1-(2-(2,4-difluoro-5-((6-fluoro-4-methyl-1H-indol-5-yl)oxy)phenyl)-1H-imidazol-5-yl)-1-hydroxyethyl)phenyl) propanoic acid] | B (B: 5-10° C.) | C (“C” refers to AUC @ 10 uM <= 4)
7 | CC(C)OCCOCCC(c1cnc(-c2cc(Oc3c(F)cc4[nH]ccc4c3F)ccc2F)[nH]1)c1cccc(CCC(=O)O)c1F (single isomer, unassigned) [Example 130B, 3-(3-(1-(2-(5-((4,6-difluoro-1H-indol-5-yl)oxy)-2-fluorophenyl)-1H-imidazol-5-yl)-3-(2-isopropoxyethoxy)propyl)-2-fluorophenyl)propanoic acid] | A (A: T ≥ 10° C.) | A (“A” refers to AUC @10 uM >= 12)
8 | COC(=O)CCc1cccc(C(O)c2cnc(-c3cccc(Oc4c(F)cc5[nH]ccc5c4-c4nccs4)c3)[nH]2)c1 (centres unmarked) [Example 86, Methyl 3-(3-((2-(3-((6-fluoro-4-(thiazol-2-yl)-1H-indol-5-yl)oxy)phenyl)-1H-imidazol-5-yl)(hydroxy)methyl)phenyl)propanoate] | C (C: ≤5° C.) | C (“C” refers to AUC @ 10 uM <= 4)
9 | Cc1nc(-c2cc(Oc3c(F)cc4[nH]ccc4c3F)ccc2F)[nH]c1C(O)c1cccc(CCC(=O)O)c1F (single isomer, unassigned) [Example 180, 3-(3-((2-(5-((4,6-difluoro-1H-indol-5-yl)oxy)-2-fluorophenyl)-4-methyl-1H-imidazol-5-yl)(hydroxy)methyl)-2-fluorophenyl)propanoic acid] | A (A: T ≥ 10° C.) | A (“A” refers to AUC @10 uM >= 12)
10 | O=C(O)CCc1cccc(C2(c3cnc(-c4cc(Oc5c(F)cc6[nH]ccc6c5CC(F)(F)F)ccc4F)[nH]3)CCS(=O)(=O)CC2)c1 [Example 170, 3-(3-(4-(2-(2-fluoro-5-((6-fluoro-4-(2,2,2-trifluoroethyl)-1H-indol-5-yl)oxy)phenyl)-1H-imidazol-5-yl)-1,1-dioxidotetrahydro-2H-thiopyran-4-yl)phenyl)propanoic acid] | B (B: 5-10° C.) | C (“C” refers to AUC @ 10 uM <= 4)
11 | O=C(O)CCc1cccc(C(O)(c2cnc(-c3cc(Oc4c(F)cc5[nH]ccc5c4F)ccc3F)[nH]2)C(F)(F)F)c1 (centres unmarked) [Example 273, 3-(3-(1-(2-(5-((4,6-difluoro-1H-indol-5-yl)oxy)-2-fluorophenyl)-1H-imidazol-5-yl)-2,2,2-trifluoro-1-hydroxyethyl)phenyl)propanoic acid] | B (B: 5-10° C.) | C (“C” refers to AUC @ 10 uM <= 4)
12 | CS(=O)(=O)Cc1c(Oc2ccc(F)c(-c3ncc(Cc4cccc(CCC(=O)O)c4F)[nH]3)c2)c(F)cc2[nH]ccc12 [Example 279, 3-(2-Fluoro-3-((2-(2-fluoro-5-((6-fluoro-4-((methylsulfonyl)methyl)-1H-indol-5-yl)oxy)phenyl)-1H-imidazol-5-yl)methyl)phenyl)propanoic acid] | A (A: T ≥ 10° C.) | A (“A” refers to AUC @10 uM >= 12)
13 | Cc1c(Oc2ccc(F)c(-c3ncc([C@]4(c5cccc(CCC(=O)O)c5)C[C@H](O)CO4)[nH]3)c2)c(F)cc2[nH]ccc12 (racemic) [Example 274, rac-3-(3-((2r,4s)-2-(2-(2-Fluoro-5-((6-fluoro-4-methyl-1H-indol-5-yl)oxy)phenyl)-1H-imidazol-5-yl)-4-hydroxytetrahydrofuran-2-yl)phenyl)propanoic acid] | A (A: T ≥ 10° C.) | C (“C” refers to AUC @ 10 uM <= 4)
14 | CS(=O)(=O)CCc1c(Oc2ccc(F)c(-c3ncc(Cc4cccc(CCC(=O)O)c4F)[nH]3)c2)c(F)cc2[nH]ccc12 [Example 126, 3-(2-fluoro-3-((2-(2-fluoro-5-((6-fluoro-4-(2-(methylsulfonyl)ethyl)-1H-indol-5-yl)oxy)phenyl)-1H-imidazol-5-yl)methyl)phenyl)propanoic acid] | A (A: T ≥ 10° C.) | B (“B” refers to AUC @10 uM between 4-12)
15 | CC(c1cnc(-c2cc(Oc3c(F)cc4[nH]ccc4c3F)ccc2F)[nH]1)c1cc(F)cc(CCC(=O)O)c1F (single isomer, unassigned) [Example 132B, 3-(3-(1-(2-(5-((4,6-difluoro-1H-indol-5-yl)oxy)-2-fluorophenyl)-1H-imidazol-5-yl)ethyl)-2,5-difluorophenyl)propanoic acid] | A (A: T ≥ 10° C.) | A (“A” refers to AUC @10 uM >= 12)
16 | CC(c1cnc(-c2cc(Oc3c(F)cc4[nH]ccc4c3F)ccc2F)[nH]1)c1cccc(CC(=O)O)c1F (single isomer, unassigned) [Example 131A, 2-(3-(1-(2-(5-((4,6-difluoro-1H-indol-5-yl)oxy)-2-fluorophenyl)-1H-imidazol-5-yl)ethyl)-2-fluorophenyl)acetic acid] | A (A: T ≥ 10° C.) | A (“A” refers to AUC @10 uM >= 12)
